Assay results reported in patent US10526337B2, “Heteroaryl derivative or pharmaceutically acceptable salt thereof, preparation method therefor, and pharmaceutical composition for preventing or treating diseases associated with PI3 kinases, containing same as active ingredient” (KOREA RESEARCH INSTITUTE OF CHEMICAL TECHNOLOGY, priority 2015, dated 2020).

Key:
Conditions in all cases: ATP=10 uM, sample concentration=100 nM
[1] = molecular target: T1, PI3 Kinase (p110α/p85α) (h) (Homo sapiens, UniProt P42336); assay: Inhibition of phosphatidylinositol 3-kinase alpha (PI3K α), pAkt Western blotting in EGF-stimulated MDA-MB-453 cells; format: cell-based
T1 construct: endogenous in cells; host or cells: MDA-MB-453
T1 sequence (P42336 whole entry): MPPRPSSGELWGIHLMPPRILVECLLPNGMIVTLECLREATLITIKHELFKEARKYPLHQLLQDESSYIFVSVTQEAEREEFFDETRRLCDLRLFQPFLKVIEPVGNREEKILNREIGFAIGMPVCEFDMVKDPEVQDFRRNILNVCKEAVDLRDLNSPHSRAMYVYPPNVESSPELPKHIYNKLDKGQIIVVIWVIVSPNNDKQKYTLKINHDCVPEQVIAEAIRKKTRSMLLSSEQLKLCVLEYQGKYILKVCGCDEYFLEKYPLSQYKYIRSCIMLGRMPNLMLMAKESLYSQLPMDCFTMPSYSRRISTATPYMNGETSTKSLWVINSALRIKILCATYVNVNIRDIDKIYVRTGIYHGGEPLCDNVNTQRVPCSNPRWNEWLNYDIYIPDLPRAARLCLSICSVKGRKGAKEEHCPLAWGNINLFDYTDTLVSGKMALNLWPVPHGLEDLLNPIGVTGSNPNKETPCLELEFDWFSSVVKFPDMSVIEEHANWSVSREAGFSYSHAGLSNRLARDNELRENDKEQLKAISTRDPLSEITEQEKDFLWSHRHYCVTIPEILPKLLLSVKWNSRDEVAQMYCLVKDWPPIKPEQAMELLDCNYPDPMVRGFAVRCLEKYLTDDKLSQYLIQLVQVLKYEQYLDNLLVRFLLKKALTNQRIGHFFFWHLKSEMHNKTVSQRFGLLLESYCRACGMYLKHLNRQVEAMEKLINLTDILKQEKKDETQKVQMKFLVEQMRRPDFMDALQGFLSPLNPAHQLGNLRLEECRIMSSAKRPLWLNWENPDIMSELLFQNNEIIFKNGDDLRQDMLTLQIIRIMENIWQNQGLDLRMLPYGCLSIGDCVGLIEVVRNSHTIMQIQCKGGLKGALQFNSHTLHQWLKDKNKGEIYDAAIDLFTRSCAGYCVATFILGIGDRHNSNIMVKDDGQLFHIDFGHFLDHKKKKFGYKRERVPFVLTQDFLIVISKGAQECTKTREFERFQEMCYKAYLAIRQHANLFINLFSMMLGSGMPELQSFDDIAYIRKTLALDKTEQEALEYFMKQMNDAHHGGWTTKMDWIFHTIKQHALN
T1 sequence (P27986 2-724 partner limits assumed): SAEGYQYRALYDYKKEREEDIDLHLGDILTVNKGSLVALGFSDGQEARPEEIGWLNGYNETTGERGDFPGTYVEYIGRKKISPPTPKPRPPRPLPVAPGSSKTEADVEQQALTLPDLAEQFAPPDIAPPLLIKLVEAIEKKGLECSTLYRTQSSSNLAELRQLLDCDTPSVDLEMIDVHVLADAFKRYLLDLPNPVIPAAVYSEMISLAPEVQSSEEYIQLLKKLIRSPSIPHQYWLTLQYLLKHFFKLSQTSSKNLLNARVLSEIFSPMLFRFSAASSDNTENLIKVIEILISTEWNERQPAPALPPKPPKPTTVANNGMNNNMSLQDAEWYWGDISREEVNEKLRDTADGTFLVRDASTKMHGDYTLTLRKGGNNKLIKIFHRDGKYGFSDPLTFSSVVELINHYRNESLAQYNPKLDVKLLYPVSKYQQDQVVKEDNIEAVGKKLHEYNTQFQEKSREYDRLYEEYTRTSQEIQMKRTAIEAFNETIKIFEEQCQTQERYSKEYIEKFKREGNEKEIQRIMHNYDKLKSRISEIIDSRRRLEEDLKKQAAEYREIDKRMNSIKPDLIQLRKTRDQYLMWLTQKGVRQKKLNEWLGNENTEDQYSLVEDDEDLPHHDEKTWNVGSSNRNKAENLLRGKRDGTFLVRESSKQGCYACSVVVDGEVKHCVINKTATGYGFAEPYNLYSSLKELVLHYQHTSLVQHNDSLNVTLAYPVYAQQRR
Description: The inhibition of phosphatidylinositol 3 kinase alpha (PI3K α) by those compounds prepared in Examples 1˜98 was investigated by the following experiment. The inhibition activity of each compound was measured in the following conditions: ATP=10 uM, and sample concentration=100 nM.
Human breast cancer cells (MDA-MB-453) cultured in DMEM (Dulbecco's Modified Eagle Medium, Hyclon, SH30243.01) supplemented with 10% fetal bovine serum (Hyclon, USA) were distributed in a 12-well plate at the density of 1,000,000 cells/well. The cells were stabilized in a 37° C. CO2 for 24 hours and then treated with each compound for 1 and half hours. The cells were treated with 10 ng/mL of EGF (Epidermal Growth Factor, 10 μg/mL; R&D, 2150-C5) to increase the intracellular activity of PI3K alpha. 5 minutes later, the medium was discarded and the cells were washed with cold PBS (phosphate buffered saline, Gibco, 14190-250). PBS was then eliminated completely by using a pipette. Western blotting was performed as described in step 2 to evaluate the intracellular PI3K alpha activity.
(§1) The stimulated cells were transferred in a 1.5 mL tube, followed by centrifugation at 3000 rpm for 1 minute. 100 μL of RIPA buffer (radioimmunoprecipitation assay buffer, 50 mM Tris-HCl, 5 mM EDTA, 150 mM NaCl, 1% NP-40, 1 mM PMSF, pH 8.0; ELPIS, Korea) was added thereto, which was stored in a 4° C. refrigerator for 12 hours. Centrifugation was performed at 4° C. at 14,000 rpm for 20 minutes. The supernatant was transferred into a new 1.5 mL tube. Protein was quantified by BCA (bicinchoninic acid) method and samples were prepared. The composition of the sample was as follows: sample buffer (ELPIS, EBA-1052) 5×, protein 10 μg, and 1× sample buffer to make the total volume 20 μL. The sample was heated at 100° C. for 5 minutes. The evaporated water vapor was condensed in a refrigerator. The liquid stained on the wall was fallen down by centrifugation for a few seconds. The sample proceeded to 10% SDS (Sodium Dodecyl Sulfate) acrylamide gel for separation. The separated protein was transferred onto PVDF (poly-vinyl difluoride) membrane, followed by reaction with pAkt (phospho protein kinase B) antibody (Ser473 or Thr308; Cell signaling, 9271s or 13038s) for 12 hours at 4° C. The membrane was washed with TBST (Tris-Buffered Saline with Tween 20, 10 mM Tris-HCl, pH 7.5, 150 mM NaCl, 0.1% Tween-20) three times for 5 minutes each, to which the secondary antibody (rabbit antibody, Santacruz, sc-2004) was added, followed by reaction at room temperature for 2 hours. The membrane was washed with TBST three times for 10 minutes each, to which ECL (enhanced chemiluminescence, Thermo, NCI34095KR) was sprayed. Bands were investigated by using LAS-3000.

[2] = molecular target: T2, PI3 Kinase (p110β/p86α) (h) (Homo sapiens, UniProt P42338); assay: Inhibition of phosphatidylinositol 3-kinase beta (PI3K β), pAkt Western blotting in LPA-stimulated PC3 cells; format: cell-based
T2 construct: endogenous in cells; host or cells: PC3
Description: as §1
The inhibition of phosphatidylinositol 3 kinase beta (PI3K β) by those compounds prepared in Examples 1˜98 was investigated by the following experiment. The inhibition activity of each compound was measured in the following conditions: ATP=10 uM, and sample concentration=100 nM.
Human prostate cancer cells (PC3 cells) cultured in DMEM (Dulbecco's Modified Eagle Medium, Hyclon, SH30243.01) supplemented with 10% fetal bovine serum (Hyclon, USA) were distributed in a 12-well plate at the density of 1,000,000 cells/well. The cells were stabilized in a 37° C. CO2 for 24 hours and then treated with each compound for 1 and half hours. The cells were treated with 10 ng/mL of LPA (lysophosphatidic acid, 10 μg/mL; R&D, 2150-05) to increase the intracellular activity of PI3K beta. 5 minutes later, the medium was discarded and the cells were washed with cold PBS (phosphate buffered saline, Gibco, 14190-250). PBS was then eliminated completely by using a pipette. Western blotting was performed according to the same manner as described in step 2 of Experimental Example 1 to evaluate the intracellular PI3K beta activity.

[3] = molecular target: T3, PI3 Kinase (p120γ) (h) (Homo sapiens, UniProt P48736); assay: Inhibition of phosphatidylinositol 3-kinase gamma (PI3K γ), pAkt Western blotting in C5a-stimulated RAW264.7 macrophages; format: cell-based, mouse
T3 construct: endogenous in cells; host or cells: RAW264.7
T3 sequence (P48736 whole entry): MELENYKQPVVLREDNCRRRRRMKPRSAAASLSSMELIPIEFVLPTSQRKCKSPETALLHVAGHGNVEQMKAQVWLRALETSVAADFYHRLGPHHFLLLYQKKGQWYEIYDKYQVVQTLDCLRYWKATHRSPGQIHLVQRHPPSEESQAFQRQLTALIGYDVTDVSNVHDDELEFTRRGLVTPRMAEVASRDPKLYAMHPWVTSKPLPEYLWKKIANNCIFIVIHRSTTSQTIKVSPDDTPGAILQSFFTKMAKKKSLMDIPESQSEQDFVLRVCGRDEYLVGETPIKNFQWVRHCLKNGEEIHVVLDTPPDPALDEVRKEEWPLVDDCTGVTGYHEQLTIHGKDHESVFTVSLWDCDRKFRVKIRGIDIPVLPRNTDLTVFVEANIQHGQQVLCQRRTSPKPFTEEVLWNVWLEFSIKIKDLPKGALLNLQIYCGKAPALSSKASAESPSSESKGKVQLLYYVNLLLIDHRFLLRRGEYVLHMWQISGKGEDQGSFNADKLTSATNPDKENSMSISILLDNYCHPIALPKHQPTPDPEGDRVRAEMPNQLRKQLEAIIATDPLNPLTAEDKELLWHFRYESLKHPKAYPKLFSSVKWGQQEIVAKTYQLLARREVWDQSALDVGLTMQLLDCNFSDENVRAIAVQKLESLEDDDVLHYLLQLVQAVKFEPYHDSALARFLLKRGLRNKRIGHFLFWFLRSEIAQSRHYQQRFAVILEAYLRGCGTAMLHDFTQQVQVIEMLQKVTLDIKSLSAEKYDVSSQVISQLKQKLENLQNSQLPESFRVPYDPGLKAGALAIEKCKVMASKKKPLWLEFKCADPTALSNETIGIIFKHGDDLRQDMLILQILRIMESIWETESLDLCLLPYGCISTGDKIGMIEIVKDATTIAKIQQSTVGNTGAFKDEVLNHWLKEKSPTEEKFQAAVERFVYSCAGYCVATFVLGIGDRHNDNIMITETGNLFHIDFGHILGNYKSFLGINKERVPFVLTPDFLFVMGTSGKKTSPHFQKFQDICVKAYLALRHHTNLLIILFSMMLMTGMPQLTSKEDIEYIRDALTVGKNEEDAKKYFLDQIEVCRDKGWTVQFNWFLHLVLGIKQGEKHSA
Procedure, shortened: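 Enzyme: PI3Kγ activity measured at ATP=10 uM with compound at 100 nM. Cellular: RAW264.7 macrophages treated with compound 1.5 h, then stimulated with 10 ng/mL C5a for 5 min; lysates (10 μg protein) probed by Western blot for pAkt (Ser473 or Thr308), ECL detection.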

[4] = molecular target: T4, PI3 Kinase (p110δ/p85α) (h) (Homo sapiens, UniProt O00329); assay: Inhibition of phosphatidylinositol 3-kinase delta (PI3K δ), pAkt Western blotting in IgM-stimulated Raji cells; format: cell-based
T4 construct: endogenous in cells; host or cells: Raji
T4 sequence (O00329 whole entry): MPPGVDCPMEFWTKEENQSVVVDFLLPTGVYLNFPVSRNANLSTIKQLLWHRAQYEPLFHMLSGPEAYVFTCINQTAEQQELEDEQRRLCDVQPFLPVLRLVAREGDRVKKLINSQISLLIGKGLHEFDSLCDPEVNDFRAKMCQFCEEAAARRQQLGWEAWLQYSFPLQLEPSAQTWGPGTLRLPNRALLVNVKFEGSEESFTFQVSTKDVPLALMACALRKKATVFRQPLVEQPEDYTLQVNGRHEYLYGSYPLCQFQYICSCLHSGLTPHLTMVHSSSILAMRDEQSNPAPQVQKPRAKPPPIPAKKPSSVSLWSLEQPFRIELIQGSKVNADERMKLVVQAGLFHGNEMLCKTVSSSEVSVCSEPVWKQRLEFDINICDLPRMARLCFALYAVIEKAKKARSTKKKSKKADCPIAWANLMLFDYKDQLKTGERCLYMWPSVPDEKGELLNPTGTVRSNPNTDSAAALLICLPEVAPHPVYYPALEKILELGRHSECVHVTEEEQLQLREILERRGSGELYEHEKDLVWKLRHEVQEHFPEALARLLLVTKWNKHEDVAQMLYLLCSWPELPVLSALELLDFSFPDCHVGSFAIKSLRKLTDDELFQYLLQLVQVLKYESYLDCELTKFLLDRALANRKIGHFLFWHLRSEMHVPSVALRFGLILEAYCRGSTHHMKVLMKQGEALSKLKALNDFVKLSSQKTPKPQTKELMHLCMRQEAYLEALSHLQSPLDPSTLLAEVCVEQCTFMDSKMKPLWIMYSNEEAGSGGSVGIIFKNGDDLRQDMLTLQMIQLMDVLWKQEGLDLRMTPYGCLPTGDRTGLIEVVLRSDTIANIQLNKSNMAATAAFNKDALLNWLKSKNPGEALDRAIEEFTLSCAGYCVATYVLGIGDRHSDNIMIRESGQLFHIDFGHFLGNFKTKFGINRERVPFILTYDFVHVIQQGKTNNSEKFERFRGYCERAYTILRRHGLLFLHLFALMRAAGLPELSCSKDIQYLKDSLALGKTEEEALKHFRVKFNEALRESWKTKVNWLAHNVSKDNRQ
T4 sequence (P27986 whole entry partner): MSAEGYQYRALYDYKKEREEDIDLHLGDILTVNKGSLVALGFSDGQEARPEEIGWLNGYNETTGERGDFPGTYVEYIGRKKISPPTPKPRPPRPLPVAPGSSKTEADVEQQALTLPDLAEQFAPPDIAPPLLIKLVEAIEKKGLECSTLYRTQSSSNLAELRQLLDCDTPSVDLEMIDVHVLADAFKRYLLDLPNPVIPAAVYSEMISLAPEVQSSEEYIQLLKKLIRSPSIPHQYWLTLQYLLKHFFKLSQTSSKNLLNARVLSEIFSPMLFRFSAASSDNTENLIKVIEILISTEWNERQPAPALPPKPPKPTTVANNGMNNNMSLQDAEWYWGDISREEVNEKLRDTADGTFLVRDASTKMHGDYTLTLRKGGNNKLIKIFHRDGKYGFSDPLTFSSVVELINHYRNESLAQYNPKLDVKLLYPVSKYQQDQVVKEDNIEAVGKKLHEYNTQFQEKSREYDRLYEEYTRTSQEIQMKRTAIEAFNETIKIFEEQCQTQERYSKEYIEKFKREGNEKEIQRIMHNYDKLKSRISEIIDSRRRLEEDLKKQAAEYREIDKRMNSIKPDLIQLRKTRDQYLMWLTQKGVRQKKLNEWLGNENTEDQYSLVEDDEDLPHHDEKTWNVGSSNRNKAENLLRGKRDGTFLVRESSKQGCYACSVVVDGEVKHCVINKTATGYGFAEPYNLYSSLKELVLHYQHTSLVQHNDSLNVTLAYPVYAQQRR
Procedure, shortened: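 Raji cells were treated with compound for 1.5 h, then stimulated with 0.25 μg/mL IgM for 30 min to activate PI3Kδ. Lysates were Western blotted for pAkt (Ser473 or Thr308) with ECL detection. Conditions stated: ATP=10 uM, sample concentration=100 nM.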

Row | SMILES | IC50 [1] [nM] | IC50 [2] [nM] | IC50 [3] [nM] | IC50 [4] [nM]
1 | C[C@H](Nc1ncnc2[nH]ccc(=O)c12)c1cc2cccc(Cl)c2c(=O)n1-c1ccccc1 [Example 5, (S)-4-((1-(8-chloro-1-oxo-2-phenyl-1,2-dihydroisoquinoline-3-yl)ethyl)amino)pyrido[2,3-d]pyrimidine-5(8H)-one] | > 500 | 10 to 500 | 10 to 500 | < 10
2 | C[C@H](Nc1ncnc2[nH]ccc(=O)c12)c1cc2ccccc2nc1-c1ccccc1 [Example 6, (S)-4-((1-(2-phenylquinoline-3-yl)ethyl)amino)pyrido[2,3-d]pyrimidine-5(8H)-one] | > 500 | > 500 | 10 to 500 | < 10
3 | CC(Nc1ncnc2[nH]ccc(=O)c12)c1nc2ccc(F)cc2cc1-c1ccccn1 (centres unmarked) [Example 7, 4-((1-(6-fluoro-3-(pyridine-2-yl)quinoline-2-yl)ethyl)amino)pyrido[2,3-d]pyrimidine-5(8H)-one] | > 500 | > 500 | > 500 | < 10
4 | C[C@H](Nc1ncnc2[nH]ccc(=O)c12)c1nc2ccc(F)cc2cc1-c1ccccn1 [Example 7-1, (S)-4-((1-(6-fluoro-3-(pyridine-2-yl)quinoline-2-yl)ethyl)amino)pyrido[2,3-d]pyrimidine-5(8H)-one] | > 500 | > 500 | > 500 | 10 to 500
5 | C[C@H](Nc1ncnc2[nH]ccc(=O)c12)c1cc2ccc(F)cc2nc1-c1cccc(F)c1 [Example 8, (S)-4-((1-(7-fluoro-2-(3-fluorophenyl)quinoline-3-yl)ethyl)amino)pyrido[2,3-d]pyrimidine-5(8H)-one] | > 500 | > 500 | 10 to 500 | < 10
6 | C[C@H](Nc1ncnc2[nH]ccc(=O)c12)c1cc2ccc(F)cc2nc1-c1ccccn1 [Example 9, (S)-4-(1-(7-fluoro-2-(pyridine-2-yl)quinoline-3-yl)ethylamino)pyrido[2,3-d]pyrimidine-5(8H)-one] | > 500 | > 500 | 10 to 500 | < 10
7 | C[C@H](Nc1ncnc2[nH]ccc(=O)c12)c1c(Cl)c2cccc(Cl)c2c(=O)n1-c1ccccc1 [Example 10, (S)-4-((1-(4,8-dichloro-1-oxo-2-phenyl-1,2-dihydroisoquinoline-3-yl)ethyl)amino)pyrido[2,3-d]pyrimidine-5(8H)-one] | > 500 | > 500 | 10 to 500 | < 10
8 | C[C@H](Nc1ncnc2[nH]ccc(=O)c12)c1c(F)c2cccc(Cl)c2c(=O)n1-c1ccccc1 [Example 11, (S)-4-((1-(8-chloro-4-fluoro-1-oxo-2-phenyl-1,2-dihydroisoquinoline-3-yl)ethyl)amino)pyrido[2,3-d]pyrimidine-5(8H)-one] | > 500 | > 500 | 10 to 500 | < 10
9 | CC[C@H](Nc1ncnc2[nH]ccc(=O)c12)c1nc2cccc(F)c2c(=O)n1-c1ccccc1 [Example 12, (S)-4-((1-(5-fluoro-4-oxo-3-phenyl-3,4-dihydroquinazoline-2-yl)propyl)amino)pyrido[2,3-d]pyrimidine-5(8H)-one] | > 500 | > 500 | 10 to 500 | < 10
10 | O=c1cc[nH]c2ncnc(N3CCC[C@H]3c3nc4cccc(Cl)c4c(=O)n3-c3ccccc3)c12 [Example 13, (S)-4-(2-(5-chloro-4-oxo-3-phenyl-3,4-dihydroquinazoline-2-yl)pyrrolidine-1-yl)pyrido[2,3-d]pyrimidine-5(8H)-one] | > 500 | > 500 | 10 to 500 | < 10
11 | O=c1cc[nH]c2ncnc(N3CCC[C@H]3c3cc4cccc(Cl)c4c(=O)n3-c3ccccc3)c12 [Example 14, (S)-4-(2-(8-chloro-1-oxo-2-phenyl-1,2-dihydroisoquinoline-3-yl)pyrrolidine-1-yl)pyrido[2,3-d]pyrimidine-5(8H)-one] | > 500 | > 500 | 10 to 500 | 10 to 500
12 | C[C@H](Nc1nc(N)nc2[nH]ccc(=O)c12)c1cc2cccc(Cl)c2c(=O)n1-c1ccccc1 [Example 15, (S)-2-amino-4-((1-(8-chloro-1-oxo-2-phenyl-1,2-dihydroisoquinoline-3-yl)ethyl)amino)pyrido[2,3-d]pyrimidine-5(8H)-one] | 10 to 500 | 10 to 500 | 10 to 500 | < 10
13 | Nc1nc(N2CCC[C@H]2c2cc3cccc(Cl)c3c(=O)n2-c2ccccc2)c2c(=O)cc[nH]c2n1 [Example 16, (S)-2-amino-4-(2-(8-chloro-1-oxo-2-phenyl-1,2-dihydroisoquinoline-3-yl)pyrrolidine-1-yl)pyrido[2,3-d]pyrimidine-5(8H)-one] | > 500 | > 500 | 10 to 500 | 10 to 500
14 | Cc1c[nH]c2ncnc(N[C@@H](C)c3cc4cccc(Cl)c4c(=O)n3-c3ccccc3)c2c1=O [Example 17, (S)-4-((1-(8-chloro-1-oxo-2-phenyl-1,2-dihydroisoquinoline-3-yl)ethyl)amino)-6-methylpyrido[2,3-d]pyrimidine-5(8H)-one] | > 500 | > 500 | 10 to 500 | 10 to 500
15 | Cc1c[nH]c2nc(N)nc(N[C@@H](C)c3cc4cccc(Cl)c4c(=O)n3-c3ccccc3)c2c1=O [Example 18, (S)-2-amino-4-((1-(8-chloro-1-oxo-2-phenyl-1,2-dihydroisoquinoline-3-yl)ethyl)amino)-6-methylpyrido[2,3-d]pyrimidine-5(8H)-one] | 10 to 500 | 10 to 500 | 10 to 500 | < 10
16 | C[C@H](Nc1ncnc2[nH]cc(C#N)c(=O)c12)c1cc2cccc(Cl)c2c(=O)n1-c1ccccc1 [Example 19, (S)-4-((1-(8-chloro-1-oxo-2-phenyl-1,2-dihydroisoquinoline-3-yl)ethyl)amino)-5-oxo-5,8-dihydropyrido[2,3-d]pyrimidine-6-carbonitrile] | > 500 | > 500 | > 500 | > 500
17 | C[C@H](Nc1ncnc2[nH]cc(F)c(=O)c12)c1cc2cccc(Cl)c2c(=O)n1-c1ccccc1 [Example 20, (S)-4-((1-(8-chloro-1-oxo-2-phenyl-1,2-dihydroisoquinoline-3-yl)ethyl)amino)-6-fluoropyrido[2,3-d]pyrimidine-5(8H)-one] | > 500 | > 500 | 10 to 500 | < 10
